Assay results taken from patent US6818203B2, “Use of perfluoroalkyl-containing metal complexes as contrast media in MR-imaging for visualization of plaque, tumors and necroses” (Schering Aktiengesellschaft, priority 2000, dated 2004).
Values belong to the molecule of their own block, whether it stands above or below them.

What was measured:
[1] = critical micelle formation concentration (CMC) by tensiometry; assay type: physicochemical
Protocol: In aqueous systems, these amphiphilic molecules show the properties that are characteristic of standard surfactants (such as, e.g., sodium dodecylsulfate, SDS). They thus reduce the surface tension of water. By tensiometry, the so-called CMC (critical micelle formation concentration in mol/l) can be determined. In this respect, the surface tension is determined based on the concentration of the substance to be measured. The CMC can be calculated from the plot of the surface tension function (c) that is obtained. The critical micelle formation concentration of the compounds according to the invention must be <10^−3 mol/l, preferably <10^−4 mol/l.
(§1) Both the determination of the CMC and the photon correlation spectroscopy are described in H.-D. Dörfler, “Grenzflächen- und Kolloidchemie [Interface and Colloid Chemistry],” Weinheim, New York, Basel, Cambridge, Tokyo, VSH 1994.

[2] = organ distribution (including lymph node concentration) after intravenous administration in rats; assay type: in vivo; details: 24 hours after administration, 200 μmol Gd/kg i.v.
Protocol: (§2) After intravenous administration of 100 μmol of total gadolinium/kg of body weight of a polar Gd-chelate with perfluorinated side chains (metal complex X) in rats, the metal content in various organs as well as in the lymph nodes (pooled as mesenteric and peripheral lymph nodes) was determined 24 hours after administration (MW, n=2).
as §2, with “200” for “100”, “V)” for “X)”
as §2, with “200” for “100”, “III)” for “X)”

[3] = proton relaxivity in plasma (R^1), Minispec P 20; assay type: physicochemical; details: 40° C., 0.47 tesla, bovine plasma
Protocol: As a third criterion, the proton-relaxivity in plasma (R^1) at 40° C. and a field strength of 0.47 tesla is used. The relaxivity, which is indicated in [l/mmol·s], is the quantitative measurement for the shortening of relaxation time T^1 of the protons. For the purpose according to the invention, the relaxivity must be as high as possible and >10 l/mmol·s, preferably >13 l/mmol·s, especially preferably >15 l/mmol·s.
Relaxivity R^1 [l/mmol·s] of the MR-contrast media according to the invention was determined with the Minispec P 20 device of the Bruker Company. The measurements were taken at 40° C. and a field strength of 0.47 tesla. Eight measuring points were recorded by each T1-sequence: 180°-TI-90°, inversion recovery. As a medium, bovine plasma of the Kraeber Company was used. The contrast medium concentrations [mmol/l] in the batches were between 0.30 and 1.16.

[4] = system: iliac lymph nodes; experiment: lymph node visualization (MRT) after intravenous administration in VX2-tumor-bearing rabbits; assay type: in vivo; details: 200 μmol of Gd/kg i.v.; for signal in zones within the lymph node diagnosed as metastases (confirmed histologically): early images
Protocol: The pictures of FIG. 6 show MR images of an iliac lymph node and of a primary tumor (VX2-tumor implanted i.m.) precontrast, 60 minutes and 20 hours after intravenous administration of 100 μmol of Gd/kg of body weight of metal complex I in rabbits. […] The enhancement in the healthy lymph node tissue was 382% at the time of 15 minutes p.i. and 419% at the time of 60 minutes p.i. […] The ratio of signal intensities of healthy lymph node tissue to metastasis was 3.0 at the time of 15 minutes p.i. and 3.4 at the time of 60 minutes p.i. […] The enhancement in the healthy lymph node tissue was 246% at the time of 15 minutes p.i. and 282% at the time of 60 minutes p.i. […] The ratio of signal intensities of healthy lymph node tissue to metastasis was 2.5 at the time of 15 minutes p.i. and 1.7 at the time of 60 minutes p.i. […] The enhancement in the healthy lymph node tissue was 297% at the time of 10 minutes p.i. and 269% at the time of 60 minutes p.i. […] The ratio of signal intensities of healthy lymph node tissue to metastasis was 5.1 at the time of 10 minutes p.i. and 1.9 at the time of 60 minutes p.i. […] The enhancement in the healthy lymph node tissue was 195% at the time of 15 minutes p.i. and 233% at the time of 60 minutes p.i. […] The ratio of signal intensities of healthy lymph node tissue to metastasis was 1.9 at the time of 15 minutes p.i. and 1.8 at the time of 60 minutes p.i.

[5] = hydrodynamic micelle diameter (2 Rh) by photon correlation spectroscopy (PCS); assay type: physicochemical
From the text: The amphiphilic compounds according to the invention are combined in solution and are present as aggregates. The size (2 Rh) of such aggregates (e.g., micelles, rods, wafers, etc.) can be determined with the aid of […] (PCS).
As a second criterion, the hydrodynamic micelle diameter 2 Rh, which must be >1 nm, is therefore used. Those perfluoroalkyl-containing metal complexes according to the invention whose 2 RH is ≧3, quite especially preferably >4 nm, are especially suitable.
as §1

[6] = system: myocardial infarction; experiment: infarction visualization (MRT) after intravenous administration in rats with acutely induced myocardial infarction; assay type: in vivo
From the text: The successful induction of an acute myocardial infarction was confirmed by means of NBT-staining.

- CMC (critical micelle formation concentration) [1]: 7.06e-06 mol/L
- metal content ([2]; Blood): 83 μmol Gd/L
- metal content, % Dose ([2]; Blood): 1.15 % Dose
- metal content ([2]; Brain): 10 μmol Gd/L
- metal content, % Dose ([2]; Brain): 0.05 % Dose
- metal content ([2]; Carcass): 242 μmol Gd/L
- metal content, % Dose ([2]; Carcass): 36.30 % Dose
- metal content ([2]; Femur): 76 μmol Gd/L
- metal content, % Dose ([2]; Femur): 0.32 % Dose
- metal content ([2]; Heart): 82 μmol Gd/L
- metal content, % Dose ([2]; Heart): 0.13 % Dose
- metal content ([2]; Intestine): 230 μmol Gd/L
- metal content, % Dose ([2]; Intestine): 3.56 % Dose
- metal content ([2]; Kidneys): 489 μmol Gd/L
- metal content, % Dose ([2]; Kidneys): 1.97 % Dose
- metal content ([2]; Liver): 1222 μmol Gd/L
- metal content, % Dose ([2]; Liver): 26.28 % Dose
- metal content ([2]; Lung): 338 μmol Gd/L
- metal content, % Dose ([2]; Lung): 0.96 % Dose
- metal content ([2]; Mesenteric lymph nodes): 455 μmol Gd/L
- metal content, % Dose ([2]; Mesenteric lymph nodes): 0.33 % Dose
- metal content ([2]; Muscle): 28 μmol Gd/L
- metal content, % Dose ([2]; Muscle): 0.04 % Dose
- metal content ([2]; Pancreas): 203 μmol Gd/L
- metal content, % Dose ([2]; Pancreas): 0.48 % Dose
- metal content ([2]; Peripheral lymph nodes): 279 μmol Gd/L
- metal content, % Dose ([2]; Peripheral lymph nodes): 0.18 % Dose
- metal content ([2]; Spleen): 464 μmol Gd/L
- metal content, % Dose ([2]; Spleen): 0.89 % Dose
- metal content ([2]; Stomach): 165 μmol Gd/L
- metal content, % Dose ([2]; Stomach): 0.57 % Dose
- metal content, % Dose ([2]; Total): 73.20 % Dose
- R^1 Plasma (relaxivity) [3]: 24.9 mmol⁻¹ s⁻¹
- 2 Rh (hydrodynamic micelle diameter) [5]: 3.2 nm
Compound: O=C([O-])CN1CCN(CC(=O)[O-])CCN(CC(O)CNC(=O)CCCC(=O)N2CCN(C(F)(F)C(F)(F)C(F)(F)C(F)(F)C(F)(F)C(F)(F)C(F)(F)C(F)(F)F)CC2)CCN(CC(=O)[O-])CC1.[Gd+3] (centres unmarked) [metal complex III]
- signal in healthy lymph node tissue (T1-weighted gradient-echo images) [4]: strong signal rise
- enhancement in the healthy lymph node tissue ([4]; 15 minutes p.i.): 195%
- ratio of signal intensities of healthy lymph node tissue to metastasis ([4]; 15 minutes p.i.): 1.9
- enhancement in the healthy lymph node tissue ([4]; 60 minutes p.i.): 233%
- ratio of signal intensities of healthy lymph node tissue to metastasis ([4]; 60 minutes p.i.): 1.8
- signal in zones within the lymph node diagnosed as metastases (confirmed histologically) [4]: without signal rise
- signal in the infarction area (T1-weighted spin-echo images) ([6]; 22 hours after i.v. 100 μmol of Gd/kg): strong signal rise

- CMC (critical micelle formation concentration) [1]: 3.9e-06 mol/L
- metal content ([2]; Blood): 15 μmol Gd/L
- metal content, % Dose ([2]; Blood): 0.18 % Dose
- metal content ([2]; Brain): 4 μmol Gd/L
- metal content, % Dose ([2]; Brain): 0.02 % Dose
- metal content ([2]; Carcass): 268 μmol Gd/L
- metal content, % Dose ([2]; Carcass): 37.93 % Dose
- metal content ([2]; Femur): 13 μmol Gd/L
- metal content, % Dose ([2]; Femur): 0.05 % Dose
- metal content ([2]; Heart): 14 μmol Gd/L
- metal content, % Dose ([2]; Heart): 0.02 % Dose
- metal content ([2]; Intestine): 113 μmol Gd/L
- metal content, % Dose ([2]; Intestine): 1.56 % Dose
- metal content ([2]; Kidneys): 436 μmol Gd/L
- metal content, % Dose ([2]; Kidneys): 1.77 % Dose
- metal content ([2]; Liver): 344 μmol Gd/L
- metal content, % Dose ([2]; Liver): 6.34 % Dose
- metal content ([2]; Lung): 62 μmol Gd/L
- metal content, % Dose ([2]; Lung): 0.17 % Dose
- metal content ([2]; Mesenteric lymph nodes): 70 μmol Gd/L
- metal content, % Dose ([2]; Mesenteric lymph nodes): 0.05 % Dose
- metal content ([2]; Muscle): 9 μmol Gd/L
- metal content, % Dose ([2]; Muscle): 0.02 % Dose
- metal content ([2]; Pancreas): 30 μmol Gd/L
- metal content, % Dose ([2]; Pancreas): 0.05 % Dose
- metal content ([2]; Peripheral lymph nodes): 44 μmol Gd/L
- metal content, % Dose ([2]; Peripheral lymph nodes): 0.02 % Dose
- metal content ([2]; Spleen): 116 μmol Gd/L
- metal content, % Dose ([2]; Spleen): 0.17 % Dose
- metal content ([2]; Stomach): 28 μmol Gd/L
- metal content, % Dose ([2]; Stomach): 0.08 % Dose
- metal content, % Dose ([2]; Total): 48.43 % Dose
- R^1 Plasma (relaxivity) [3]: 19.6 mmol⁻¹ s⁻¹
- 2 Rh (hydrodynamic micelle diameter) [5]: 4.4 nm
Compound: CC(C(=O)NCC(=O)N(CCOCCC(F)(F)C(F)(F)C(F)(F)C(F)(F)C(F)(F)C(F)(F)C(F)(F)C(F)(F)F)CC(O)CO)N1CCN(CC(=O)[O-])CCN(CC(=O)[O-])CCN(CC(=O)[O-])CC1.[Gd+3] (centres unmarked) [metal complex V]
- signal in healthy lymph node tissue (T1-weighted gradient-echo images) [4]: strong signal rise
- enhancement in the healthy lymph node tissue ([4]; 15 minutes p.i.): 246%
- ratio of signal intensities of healthy lymph node tissue to metastasis ([4]; 15 minutes p.i.): 2.5
- enhancement in the healthy lymph node tissue ([4]; 60 minutes p.i.): 282%
- ratio of signal intensities of healthy lymph node tissue to metastasis ([4]; 60 minutes p.i.): 1.7
- signal in zones within the lymph node diagnosed as metastases (confirmed histologically) [4]: without signal rise
- signal in the infarction area (T1-weighted spin-echo images) ([6]; 24 hours after i.v. 100 μmol of Gd/kg): strong signal rise

- CMC (critical micelle formation concentration) [1]: 0.00089 mol/L
- R^1 Plasma (relaxivity) [3]: 19.5 mmol⁻¹ s⁻¹
- 2 Rh (hydrodynamic micelle diameter) [5]: 2.2 nm
Compound: CC(C(=O)NCC(=O)NCC(=O)N1CCN(C(=O)CNC(=O)CNC(=O)C(C)N2CCN(CC(=O)[O-])CCN(CC(=O)[O-])CCN(CC(=O)[O-])CC2)CCN(C(=O)COCCC(F)(F)C(F)(F)C(F)(F)C(F)(F)C(F)(F)C(F)(F)C(F)(F)C(F)(F)F)CCN(C(=O)CNC(=O)CNC(=O)C(C)N2CCN(CC(=O)[O-])CCN(CC(=O)[O-])CCN(CC(=O)[O-])CC2)CC1)N1CCN(CC(=O)[O-])CCN(CC(=O)[O-])CCN(CC(=O)[O-])CC1.[Gd+3].[Gd+3].[Gd+3] (centres unmarked) [metal complex XIV, 1,4,7-Tris{1,4,7-tris(N-(carboxylatomethyl)-10-[N-1-methyl-3,6-diaza-2,5,8-trioxooctane-1,8-diyl]-1,4,7,10-tetraazacyclododecane, Gdcomplex}-10-N-2H,2H,4H,4H,5H,5H-3-oxa-perfluoro-tridecanoyl]-1,4,7,10-tetraazacyclo-dodecane, Gd complex]
- signal in healthy lymph node tissue (T1-weighted gradient-echo images) [4]: strong signal rise
- enhancement in the healthy lymph node tissue ([4]; 10 minutes p.i.): 297%
- ratio of signal intensities of healthy lymph node tissue to metastasis ([4]; 10 minutes p.i.): 5.1
- enhancement in the healthy lymph node tissue ([4]; 60 minutes p.i.): 269%
- ratio of signal intensities of healthy lymph node tissue to metastasis ([4]; 60 minutes p.i.): 1.9
- signal in zones within the lymph node diagnosed as metastases (confirmed histologically) [4]: without signal rise
- signal in the infarction area (T1-weighted spin-echo images) ([6]; 3 hours after i.v. 100 μmol of Gd/kg): strong signal rise
